Experimental data: ChEMBL document CHEMBL5365406, “Inhibitors for metallo-β-lactamases from the B1 and B3 subgroups provide an avenue to combat a major mechanism of antibiotic resistance” (Bioorg Med Chem Lett, 2023)
Calls of active or inactive are those of the source. No cut-off for these calls is given here.

What was measured:
[1] = test system: Bacteria; assay: Inhibition of AIM-1 (unknown origin) at 10 uM relative to control
[2] = molecular target: Metallo-beta-lactamase type 2 (Bacteria) (UniProt C7C422); assay: Inhibition of NDM-1 (unknown origin) at 10 uM relative to control
[3] = test system: Escherichia coli; assay: Antagonistic antibacterial activity against Escherichia coli expressing AIM-1 in presence of cefuroxime by checkerboard sensitivity assay; assay type: functional, organism-based
[4] = test system: Escherichia coli; assay: Antagonistic antibacterial activity against Escherichia coli expressing AIM-1 in presence of meropenem by checkerboard sensitivity assay; assay type: functional, organism-based
[5] = test system: Escherichia coli; assay: Synergistic antibacterial activity against Escherichia coli expressing NDM-1 in presence of cefuroxime by checkerboard sensitivity assay; assay type: functional, organism-based
[6] = test system: Escherichia coli; assay: Synergistic antibacterial activity against Escherichia coli expressing CphA in presence of meropenem by checkerboard sensitivity assay; assay type: functional, organism-based
[7] = test system: Bacteria; assay: Competitive inhibition of AIM-1 (unknown origin) using cefuroxime as substrate by Michaelis-Menten equation based kinetic analysis
[8] = test system: Escherichia coli; assay: Synergistic antibacterial activity against Escherichia coli expressing AIM-1 in presence of penicillin G by checkerboard sensitivity assay; assay type: functional, organism-based
[9] = test system: Escherichia coli; assay: Synergistic antibacterial activity against Escherichia coli expressing NDM-1 in presence of penicillin G by checkerboard sensitivity assay; assay type: functional, organism-based
[10] = molecular target: Metallo-beta-lactamase type 2 (Bacteria) (UniProt C7C422); assay: Competitive inhibition of NDM-1 (unknown origin) using penicillin G as substrate by Michaelis-Menten equation based kinetic analysis
[11] = molecular target: Metallo-beta-lactamase type 2 (Bacteria) (UniProt C7C422); assay: Uncompetitive inhibition of NDM-1 (unknown origin) using penicillin G as substrate by Michaelis-Menten equation based kinetic analysis
[12] = test system: Bacteria; assay: Uncompetitive inhibition of AIM-1 (unknown origin) using cefuroxime as substrate by Michaelis-Menten equation based kinetic analysis
[13] = test system: Escherichia coli; assay: Synergistic antibacterial activity against Escherichia coli expressing CphA in presence of penicillin G by checkerboard sensitivity assay; assay type: functional, organism-based
[14] = test system: Escherichia coli; assay: Antagonistic antibacterial activity against Escherichia coli expressing NDM-1 in presence of meropenem by checkerboard sensitivity assay; assay type: functional, organism-based
[15] = test system: Escherichia coli; assay: Synergistic antibacterial activity against Escherichia coli expressing CphA in presence of cefuroxime by checkerboard sensitivity assay; assay type: functional, organism-based
[16] = Stability of the compound in NaBH4/ethanol assessed as oxidation measured after 24 hrs at room temperature; assay type: physicochemical
[17] = Inhibition of CphA (unknown origin) using meropenem as substrate; set-up: species or system Bacteria
[18] = test system: Escherichia coli; assay: Antagonistic antibacterial activity against Escherichia coli expressing AIM-1 in presence of penicillin G by checkerboard sensitivity assay; assay type: functional, organism-based
[19] = test system: Escherichia coli; assay: Synergistic antibacterial activity against Escherichia coli expressing AIM-1 in presence of cefuroxime by checkerboard sensitivity assay; assay type: functional, organism-based
[20] = test system: Escherichia coli; assay: Synergistic antibacterial activity against Escherichia coli expressing AIM-1 in presence of meropenem by checkerboard sensitivity assay; assay type: functional, organism-based

Metallo-beta-lactamase type 2 (Bacteria), sequence (C7C422 whole entry): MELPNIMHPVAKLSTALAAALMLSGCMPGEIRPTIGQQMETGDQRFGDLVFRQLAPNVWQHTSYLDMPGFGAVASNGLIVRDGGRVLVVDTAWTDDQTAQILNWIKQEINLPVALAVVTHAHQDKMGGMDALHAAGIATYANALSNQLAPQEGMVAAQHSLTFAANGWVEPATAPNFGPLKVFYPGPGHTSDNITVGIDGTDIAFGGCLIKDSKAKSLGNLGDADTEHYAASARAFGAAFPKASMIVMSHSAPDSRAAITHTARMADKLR

Compound | inhibition [1] | inhibition [2] | Kic [7] [µM] | Kic [10] [µM] | Kiuc [11] [µM] | Kiuc [12] [µM] | further results
N#Cc1c(-c2ccccc2)c(-c2ccccc2)n(Cc2ccccc2)c1NCc1cccs1 | 25% | 29% |  |  |  |  | 
COC(=O)c1ccc(-c2c(C#N)c(N)n(Cc3ccccc3)c2-c2ccc(C(=O)OC)cc2)cc1 | inactive | inactive |  |  |  |  | 
N#Cc1c(-c2ccccc2)c(-c2ccccc2)n(Cc2ccccc2)c1/N=C/c1cccnc1 | 11% | 28% |  |  |  |  | 
N#Cc1c(-c2ccccc2)c(-c2ccccc2)n(Cc2ccccc2)c1/N=C/c1ccc(C(=O)O)cc1 | 39% | 40% |  |  |  |  | 
N#Cc1c(-c2ccccc2)c(-c2ccccc2)n(Cc2ccccc2)c1NC(=O)c1ccccc1 | 42% | 47% | 11 | 9 | 5 | 19 | Activity [3]: Active; Activity [4]: Active; Activity [5]: Active; Activity [6]: Active; Activity [8]: Active; Activity [9]: Active; Activity [13]: Active; Activity [14]: Active; Activity [15]: Active
N#Cc1c(-c2ccccc2)c(-c2ccccc2)n(Cc2ccccc2)c1/N=C/c1ccc2ccccc2c1 | 26% | 50% |  |  |  |  | 
N#Cc1c(-c2ccccc2)c(-c2ccccc2)n(Cc2ccccc2)c1NCc1ccccc1 | 32% | 41% |  |  | 2.7 |  | Stability [16]: Stable
CC(=O)Nc1ccc(/C=N/c2c(C#N)c(-c3ccccc3)c(-c3ccccc3)n2Cc2ccccc2)cc1 | 10% | 14% |  |  |  |  | 
N#Cc1c(-c2ccccc2)c(-c2ccccc2)n(Cc2ccccc2)c1/N=C/c1cccs1 | 42% | 57% | 4.5 | 1.7 | 11 | 35 | Activity [3]: Active; Activity [4]: Active; Activity [5]: Active; IC50 [17]: 57 µM; Activity [6]: Active; Activity [9]: Active; Activity [13]: Active; Activity [14]: Active; Activity [18]: Active; Activity [15]: Active
COC(=O)c1ccc(/C=N/c2c(C#N)c(-c3ccccc3)c(-c3ccccc3)n2Cc2ccccc2)cc1 | 19% | 27% | 6.4 | 34 | 4.4 | 72 | 
N#Cc1c(-c2ccccc2)c(-c2ccccc2)n(Cc2ccccc2)c1/N=C/c1ccc([N+](=O)[O-])cc1 | 40% | 45% |  |  |  |  | 
N#Cc1c(-c2ccccn2)c(-c2ccccn2)n(Cc2ccccc2)c1N | inactive | inactive |  |  |  |  | 
N#Cc1c(-c2ccccc2)c(-c2ccccc2)n(Cc2ccccc2)c1/N=C/c1ccccc1 | 42% | 38% | 3.6 | 3.2 | 6 | 11 | Activity [5]: Active; IC50 [17]: 75 µM; Activity [6]: Active; Activity [9]: Active; Activity [19]: Active; Activity [13]: Active; Activity [14]: Active; Activity [20]: Active; Activity [18]: Active; Activity [15]: Active
N#Cc1c(-c2ccc(C(=O)O)cc2)c(-c2ccc(C(=O)O)cc2)n(Cc2ccccc2)c1N | inactive | inactive |  |  |  |  | 
N#Cc1c(-c2ccccc2)c(-c2ccccc2)n(Cc2ccccc2)c1/N=C/c1ccc(O)cc1 | 61% | 49% | 4.4 | 1.3 | 0.9 | 4.7 | Activity [5]: Active; IC50 [17]: 45 µM; Activity [6]: Active; Activity [9]: Active; Activity [19]: Active; Activity [13]: Active; Activity [14]: Active; Activity [20]: Active; Activity [18]: Active; Activity [15]: Active
